Reference: patent US11339171B2, “MDM2 inhibitors” (Gan & Lee Pharmaceuticals, priority 2017, dated 2022)
pIC50: −log10 of the molar value.

Biological target: T1, MDM2 (Homo sapiens, UniProt Q00987)
T1 construct: made in house
Assay: Inhibition test of MDM2-P53 (GST-MDM2, Biotin-P53, Anti-GST-Tb, SA-XL665)
Format: binding
Conditions: for inhibitory effect on MDM2 compared with positive control compound HDM201: labels are Example numbers, the compounds with S-configuration are meant
Description: Experimental purpose: To determine the inhibitory activities of the compounds of the present invention on MDM2.
The present experiment uses the following assay methods/instruments/reagents:
Buffer: 1×PBS+0.1% BSA+5 mM DTT; MDM2 Buffer: Buffer+1 mM AEBSF
GST-MDM2: The final concentration is 4 nM, and it is required to formulate a 20 nM (5×) solution. A mother liquor is diluted by 3500 folds, wherein the mother liquor is 10-fold diluted first, and then 350-fold diluted.
Anti-GST-Tb: The final concentration is 2×, and a mother liquor is diluted by 50 folds.
MIX: GST-MDM2, Biotin-P53, SA-XL665 and Anti-GST-Tb were mixed according to a ratio of 4:4:5:5.
Sample: Preparation of a sample (10 mM in DMSO) solution: a. 3 μL sample+7 μL DMSO+20 μL DMSO were formulated to give an initial concentration of 1 mM and mixed well; b. in plate 1, twelve 5-fold serial dilutions (sequentially prepared by adding 10 μL of the last sample to 40 μL DMSO) were prepared and mixed well, individually; c. plate 2 was taken, 45 μL of Buffer was added to each well, and 5 μL of dilution at each concentration was taken from plate 1 and added to the corresponding well in plate 2 (the concentration in well 1 was 100 μM), and mixed well.
1. 18 μL of MIX was added to a 384-well plate, and centrifugation was performed at 4500 rpm for 5 min.
2. 2 μL of sample was added correspondingly to each well, the resultant was centrifuged at 25° C. and 4500 rpm for 5 min, and shaked at 25° C. for 90 min on a shaker.
Readings were obtained from the Microplate reader, and data was processed by Graphpad Prism 6.0.

T1 sequence (Q00987 whole entry): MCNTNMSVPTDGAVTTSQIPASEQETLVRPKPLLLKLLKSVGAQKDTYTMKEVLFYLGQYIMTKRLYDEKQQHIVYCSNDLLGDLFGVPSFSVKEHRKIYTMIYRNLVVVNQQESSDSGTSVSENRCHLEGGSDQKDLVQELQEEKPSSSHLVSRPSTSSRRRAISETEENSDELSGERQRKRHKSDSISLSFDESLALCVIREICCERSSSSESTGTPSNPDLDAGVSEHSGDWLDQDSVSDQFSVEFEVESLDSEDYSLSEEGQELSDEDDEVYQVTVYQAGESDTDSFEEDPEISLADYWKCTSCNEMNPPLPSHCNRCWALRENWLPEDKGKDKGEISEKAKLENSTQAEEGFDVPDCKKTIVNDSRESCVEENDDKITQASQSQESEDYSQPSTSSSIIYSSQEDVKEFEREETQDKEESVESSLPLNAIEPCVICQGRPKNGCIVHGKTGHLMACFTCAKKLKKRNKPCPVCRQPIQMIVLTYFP

SMILES | inhibitory effect on MDM2 compared with positive control compound HDM201 | pIC50
COc1nc(OCCF)ncc1-c1nc2c(n1C(C)C)C1(C(=O)Nc3cc(Cl)ccc31)N(c1cc(Cl)ccc1C)C2=O (stereo not drawn) [Example 140, 6-chloro-5′-(5-chloro-2-methylphenyl)-2′-(2-(2-fluoroethoxy)-4-methoxypyrimidin-5-yl)-3′-isopropyl-3′H-spiro[dihydroindole-3,4′-pyrrolo[3,4-d]imidazole]-2,6′(5′H)-dione] | better | –
COc1cc(C2CC2)ncc1-c1nc2c(n1C(C)C)[C@]1(C(=O)Nc3cc(Cl)ccc31)N(c1cc(F)cc(Cl)c1)C2=O [Example R-176, (R)-6-chloro-5′-(3-chloro-5-fluorophenyl)-2′-(6-cyclopropyl-4-methoxypyridin-3-yl)-3′-isopropyl-3′H-spiro[dihydroindole-3,4′-pyrrolo[3,4-d]imidazole]-2,6′(5′H)-dione] | – | 6.49
COc1nc(C)ncc1-c1nc2c(n1C(C)C)[C@]1(C(=O)Nc3cc(Cl)ccc31)N(c1cc(Cl)ccc1C)C2=O [Example R-118, (R)-6-chloro-5′-(5-chloro-2-methylphenyl)-3′-isopropyl-2′-(4-methoxy-2-methylpyrimidin-5-yl)-3′H-spiro[dihydroindole-3,4′-pyrrolo[3,4-d]imidazole]-2,6′(5′H)-dione] | – | 6.36
COc1nc(N(C)C)ncc1-c1nc2c(n1C(C)C)C1(C(=O)Nc3cc(Cl)ccc31)N(c1cccc(Cl)c1)C2=O (stereo not drawn) [Example 112, 6-chloro-5′-(3-chlorophenyl)-2′-(2-(dimethylamino)-4-methoxypyrimidin-5-yl)-3′-isopropyl-3′ H-spiro[dihydroindole-3,4′-pyrrolo[3,4-d]imidazole]-2,6′ (5′ H)-dione] | better | –
COc1cc(N(C)C)ncc1-c1nc2c(n1C(C)C)C1(C(=O)Nc3cc(Cl)ccc31)N(c1cc(Cl)ccc1C)C2=O (stereo not drawn) [Example 111, 6-chloro-5′-(5-chloro-2-methylphenyl)-2′-(6-(dimethylamino)-4-methoxypyridin-3-yl)-3′-isopropyl-3′H-spiro[dihydroindole-3,4′-pyrrolo[3,4-d]imidazole]-2,6′(5′H)-dione] | better | –
COc1cc(OC)c(-c2nc3c(n2C(C)C)C2(C(=O)Nc4cc(Cl)ccc42)N(c2cc(F)cc(Cl)c2)C3=O)cn1 (stereo not drawn) [Example 175, 6-chloro-5′-(3-chloro-5-fluorophenyl)-2′-(4,6-dimethoxypyridin-3-yl)-3′-isopropyl-3′H-spiro[dihydroindole-3,4′-pyrrolo[3,4-d]imidazole]-2,6′(5′H)-dione] | better | –
COc1ccc(C)cc1-c1nc2c(n1C(C)C)C1(C(=O)Nc3cc(Cl)ccc31)N(c1cc(Cl)ccc1C)C2=O (stereo not drawn) [Example 62, 6-chloro-5′-(5-chloro-2-methylphenyl)-3′-isopropyl-2′-(2-methoxy-5-methylphenyl)-3′H-spiro[dihydroindole-3,4′-pyrrolo[3,4-d]imidazole]-2,6′(5′H)-dione] | better | –
COc1nc(OCCF)ncc1-c1nc2c(n1C(C)C)C1(C(=O)Nc3cc(Cl)ccc31)N(c1cc(Cl)cnc1C)C2=O (stereo not drawn) [Example 170, 6-chloro-5′-(5-chloro-2-methylpyridin-3-yl)-2′-(2-(2-fluoroethoxy)-4-methoxypyrimidin-5-yl)-3′-isopropyl-3′H-spiro[dihydroindole-3,4′-pyrrolo[3,4-d]imidazole]-2,6′(5′H)-dione] | better | –
COc1ncc(-c2nc3c(n2C(C)C)[C@@]2(C(=O)Nc4cc(Cl)ccc42)N(c2cc(C)ccc2C)C3=O)c(OC)n1 [Example S-56, (S)-6-chloro-2′-(2,4-dimethoxypyrimidin-5-yl)-5′-(2,5-dimethylphenyl)-3′-isopropyl-3′H-spiro[dihydroindole-3,4′-pyrrolo[3,4-d]imidazole]-2,6′(5′H)-dione] | – | 8.28
COc1ccccc1-c1nc2c(n1C(C)C)C1(C(=O)Nc3cc(Cl)ccc31)N(c1cc(Cl)c(=O)n(C)c1)C2=O (stereo not drawn) [Example 53, 6-chloro-5′-(5-chloro-1-methyl-6-oxo-1,6-dihydropyridin-3-yl)-3′-isopropyl-2′-(2-methoxyphenyl)-3′H-spiro[dihydroindole-3,4′-pyrrolo[3,4-d]imidazole]-2,6′(5′H)-dione] | better | –
COc1cc(C2CC2)cc(OC)c1-c1nc2c(n1C(C)C)[C@]1(C(=O)Nc3cc(Cl)ccc31)N(c1cc(Cl)ccc1C)C2=O [Example R-108, (R)-6-chloro-5′-(5-chloro-2-methylphenyl)-2′-(4-cyclopropyl-2,6-dimethoxyphenyl)-3′-isopropyl-3′H-spiro[dihydroindole-3,4′-pyrrolo[3,4-d]imidazole]-2,6′(5′H)-dione] | – | 6.16
COc1cc(F)c(-c2nc3c(n2C(C)C)[C@]2(C(=O)Nc4cc(Cl)ccc42)N(c2cc(Cl)ccc2C)C3=O)c(OC)c1 [Example R-130, (R)-6-chloro-5′-(5-chloro-2-methylphenyl)-2′-(2-fluoro-4,6-dimethoxyphenyl)-3′-isopropyl-3′H-spiro[dihydroindole-3,4′-pyrrolo[3,4-d]imidazole]-2,6′(5′H)-dione] | – | 6.25
COc1ccncc1-c1nc2c(n1C(C)C)C1(C(=O)Nc3cc(Cl)ccc31)N(c1cc(Cl)ccc1C)C2=O (stereo not drawn) [Example 18, 6-chloro-5′-(5-chloro-2-methylphenyl)-3′-isopropyl-2′-(4-methoxypyridin-3-yl)-3′H-spiro[dihydroindole-3,4′-pyrrolo[3,4-d]imidazole]-2,6′(5′H)-dione] | better | –
COc1nc(N(C)C)ncc1-c1nc2c(n1C(C)C)[C@]1(C(=O)Nc3cc(Cl)ccc31)N(c1cccc(Cl)c1)C2=O [Example R-112, (R)-6-chloro-5′-(3-chlorophenyl)-2′-(2-(dimethylamino)-4-methoxypyrimidin-5-yl)-3′-isopropyl-3′H-spiro[dihydroindole-3,4′-pyrrolo[3,4-d]imidazole]-2,6′(5′H)-dione] | – | 6.98
COc1nc(N)ncc1-c1nc2c(n1C(C)C)[C@]1(C(=O)Nc3cc(Cl)ccc31)N(c1cc(Cl)ccc1C)C2=O [Example R-90, (R)-2′-(2-amino-4-methoxypyrimidin-5-yl)-6-chloro-5′-(5-chloro-2-methylphenyl)-3′-isopropyl-3′H-spiro[dihydroindole-3,4′-pyrrolo[3,4-d]imidazole]-2,6′(5′H)-dione] | – | 6.51
COc1cc(N)ccc1-c1nc2c(n1C(C)C)C1(C(=O)Nc3cc(Cl)ccc31)N(c1cc(Cl)ccc1F)C2=O (stereo not drawn) [Example 66, 2′-(4-amino-2-methoxyphenyl)-6-chloro-5′-(5-chloro-2-fluorophenyl)-3′-isopropyl-3′H-spiro[dihydroindole-3,4′-pyrrolo[3,4-d]imidazole]-2,6′(5′H)-dione] | better | –
COc1cc(C(C)C)ccc1-c1nc2c(n1C(C)C)[C@]1(C(=O)Nc3cc(Cl)ccc31)N(c1cccc(Cl)c1)C2=O [Example R-93, (R)-6-chloro-5′-(3-chlorophenyl)-3′-isopropyl-2′-(4-isopropyl-2-methoxyphenyl)-3′H-spiro[dihydroindole-3,4′-pyrrolo[3,4-d]imidazole]-2,6′(5′H)-dione] | – | 6.18
COc1nc(OC(C)C)ncc1-c1nc2c(n1C(C)C)[C@]1(C(=O)Nc3cc(Cl)ccc31)N(c1cccc(Cl)c1)C2=O [Example R-124, (R)-6-chloro-5′-(3-chlorophenyl)-2′-(2-isopropoxy-4-methoxypyrimidin-5-yl)-3′-isopropyl-3′H-spiro[dihydroindole-3,4′-pyrrolo[3,4-d]imidazole]-2,6′(5′H)-dione] | – | 5.88
COc1cc(OCCF)ncc1-c1nc2c(n1C(C)C)[C@]1(C(=O)Nc3cc(Cl)ccc31)N(c1cc(Cl)cnc1C)C2=O [Example R-173, (R)-6-chloro-5′-(5-chloro-2-methylpyridin-3-yl)-2′-(6-(2-fluoroethoxy)-4-methoxypyridin-3-yl)-3′-isopropyl-3′H-spiro[dihydroindole-3,4′-pyrrolo[3,4-d]imidazole]-2,6′(5′H)-dione] | – | 6.28
COc1cc(N)ccc1-c1nc2c(n1C(C)C)C1(C(=O)Nc3cc(Cl)ccc31)N(c1ccc(F)c(Cl)c1)C2=O (stereo not drawn) [Example 73, 2′-(4-amino-2-methoxyphenyl)-6-chloro-5′-(3-chloro-4-fluorophenyl)-3′-isopropyl-3′H-spiro[dihydroindole-3,4′-pyrrolo[3,4-d]imidazole]-2,6′(5′H)-dione] | better | –
COc1ccc(CC(=O)N(C)C)cc1-c1nc2c(n1C(C)C)C1(C(=O)Nc3cc(Cl)ccc31)N(c1cc(Cl)ccc1C)C2=O (stereo not drawn) [Example 70, 2-(3-(6-chloro-5′-(5-chloro-2-methylphenyl)-3′-isopropyl-2,6′-dioxo-5′,6′-dihydro-3′H-spiro[dihydroindole-3,4′-pyrrolo[3,4-d]imidazole]-2′-yl)-4-methoxyphenyl)-N,N-dimethylacetamide] | better | –
